Measurements as given in patent publication US10294246B2, “Substituted boronic acids and boronate esters as immunoproteasome inhibitors” (MERCK PATENT GMBH, priority 2014, dated 2019).

What was measured:
[1] = biological target: human immunoproteasome (LMP7) (Homo sapiens (Human), UniProt P28062); assay: Determination of LMP7 activity (fluorescence intensity assay, Suc-LLVY-AMC); type: biochemical; conditions: for Selectivity LMP7 vs Beta5: LMP7 versus Beta5; for IC50: purified human immunoproteasome 0.25 nM, Suc-LLVY-AMC 40 μM
Method: Determination of LMP7 Activity:
Measurement of LMP7 inhibition is performed in 384 well format based on fluorescence intensity assay.
(§1) Purified human immunoproteasome (0.25 nM) and serial diluted compounds in DMSO (range of concentrations from 30 μM to […]) or controls are incubated for 20 minutes at 25° C. in assay buffer containing 50 mM Tris pH 7.4, 0.03% SDS, 1 mM EDTA and 1% DMSO. The reaction is initiated by the addition of the fluorogenic peptide substrate, Suc-LLVY-AMC (Bachem 1-1395), at a concentration of 40 μM. After 60 minutes of incubation at 37° C., fluorescence intensity is measured at λex=350 nm and λem=450 nm with a fluorescence reader (Perkin Elmer Envision reader or equivalent).

[2] = biological target: human constitutive proteasome (Beta5) (Homo sapiens (Human), UniProt P28074); assay: Determination of Beta5 activity (fluorescence intensity assay, Suc-LLVY-AMC); type: biochemical; conditions: purified human constitutive proteasome 1.25 nM, Suc-LLVY-AMC 40 μM
Method: Determination of Beta5 Activity:
Measurement of Beta5 inhibition is performed in 384 well format based on fluorescence intensity assay.
as §1, with “constitutive proteasome (1.25” for “immunoproteasome (0.25”

Row | SMILES | Selectivity LMP7 vs Beta5 [1] | IC50 [1] [µM] | IC50 [2] [µM]
1 | COc1ccccc1CC(=O)N[C@@H](Cc1coc2ccccc12)B(O)O [Compound No. 27, [(1R)-2-(benzofuran-3-yl)-1-[[2-(2-methoxyphenyl)acetyl]amino]ethyl]-boronic acid] | ++++ (70 ≤ Selectivity < 100) | < 0.05 | 0.05 to 0.5
2 | O=C(Cc1ccccc1OC(F)(F)F)N[C@@H](Cc1coc2ccccc12)B(O)O [Compound No. 28, [(1R)-2-(benzofuran-3-yl)-1-[[2-[2-(trifluoromethoxy)phenyl]acetyl]-amino]ethyl]boronic acid] | +++++ (Selectivity ≥ 100) | < 0.05 | 0.5 to 5
3 | Cc1ccc(C[C@H](NC(=O)Cc2ccccc2)B(O)O)c(C)c1 [Compound No. 29, [(1R)-2-(2,4-dimethylphenyl)-1-[(2-phenylacetyl)amino]ethyl]boronic acid] | +++++ (Selectivity ≥ 100) | 0.05 to 0.5 | > 5
4 | COCc1ccc(CC(=O)N[C@@H](Cc2coc3ccccc23)B(O)O)cc1 [Compound No. 30, [(1R)-2-(benzofuran-3-yl)-1-[[2-[4-(methoxymethyl)phenyl]acetyl]-amino]ethyl]boronic acid] | ++++ (70 ≤ Selectivity < 100) | < 0.05 | 0.05 to 0.5
5 | O=C(Cc1cccc(OCCCO)c1)N[C@@H](Cc1coc2ccccc12)B(O)O [Compound No. 31, [(1R)-2-(benzofuran-3-yl)-1-[[2-[3-(3-hydroxypropoxy)phenyl]acetyl]-amino]ethyl]boronic acid] | ++++ (70 ≤ Selectivity < 100) | < 0.05 | 0.05 to 0.5
6 | CC(=O)Nc1cccc(CC(=O)N[C@@H](Cc2coc3ccccc23)B(O)O)c1 [Compound No. 32, [(1R)-1-[[2-(3-acetamidophenyl)acetyl]amino]-2-(benzofuran-3-yl)ethyl]boronic acid] | ++++ (70 ≤ Selectivity < 100) | – | 0.05 to 0.5
7 | CO[C@H](C(=O)N[C@@H](Cc1coc2ccccc12)B(O)O)c1ccccc1 [Compound No. 33, [(1R)-2-(benzofuran-3-yl)-1-[[(2S)-2-methoxy-2-phenyl-acetyl]amino]-ethyl]boronic acid] | +++++ (Selectivity ≥ 100) | – | 0.5 to 5
8 | CO[C@@H](C(=O)N[C@@H](Cc1coc2ccccc12)B(O)O)c1ccccc1 [Compound No. 34, [(1R)-2-(benzofuran-3-yl)-1-[[(2R)-2-methoxy-2-phenyl-acetyl]amino]-ethyl]boronic acid] | +++++ (Selectivity ≥ 100) | < 0.05 | 0.5 to 5
9 | Cc1ccc(C[C@H](NC(=O)Cc2c(C)cccc2C)B(O)O)c(C)c1 [Compound No. 35, [(1R)-2-(2,4-dimethylphenyl)-1-[[2-(2,6-dimethylphenyl)acetyl]amino]-ethyl]boronic acid] | ++ (10 ≤ Selectivity < 50) | 0.05 to 0.5 | 0.5 to 5
10 | Cc1ccc(C[C@H](NC(=O)C2(c3ccccc3)CC2)B(O)O)c(C)c1 [Compound No. 36, [(1R)-2-(2,4-dimethylphenyl)-1-[(1-phenylcyclopropanecarbonyl)-amino]ethyl]boronic acid] | + (Selectivity < 10) | 0.5 to 5 | > 5
11 | C[C@H](C(=O)N[C@@H](Cc1coc2ccccc12)B(O)O)c1ccccc1 [Compound No. 37, [(1R)-2-(benzofuran-3-yl)-1-[[(2S)-2-phenylpropanoyl]amino]ethyl]-boronic acid] | +++++ (Selectivity ≥ 100) | – | 0.5 to 5
12 | CC(=O)Nc1ccc(CC(=O)N[C@@H](Cc2ccc(C)cc2C)B(O)O)cc1 [Compound No. 38] | ++++ (70 ≤ Selectivity < 100) | < 0.05 | 0.5 to 5
13 | O=C(Cc1ccc(OCCO)cc1)N[C@@H](Cc1coc2ccccc12)B(O)O [Compound No. 39, [(1R)-2-(benzofuran-3-yl)-1-[[2-[4-(2-hydroxyethoxy)phenyl]acetyl]-amino]ethyl]boronic acid] | +++++ (Selectivity ≥ 100) | < 0.05 | 0.05 to 0.5
14 | O=C(Cc1ccc(OCCCO)cc1)N[C@@H](Cc1coc2ccccc12)B(O)O [Compound No. 40, [(1R)-2-(benzofuran-3-yl)-1-[[2-[4-(3-hydroxypropoxy)phenyl]acetyl]-amino]ethyl]boronic acid] | +++++ (Selectivity ≥ 100) | < 0.05 | 0.05 to 0.5
15 | O=C(Cc1cccc(OCCO)c1)N[C@@H](Cc1coc2ccccc12)B(O)O [Compound No. 41, [(1R)-2-(benzofuran-3-yl)-1-[[2-[3-(2-hydroxyethoxy)phenyl]acetyl]-amino]ethyl]boronic acid] | +++++ (Selectivity ≥ 100) | < 0.05 | 0.05 to 0.5
16 | COc1cccc(OC)c1CC(=O)N[C@@H](Cc1ccc(C)cc1C)B(O)O [Compound No. 42, [(1R)-1-[[2-(2,6-dimethoxyphenyl)acetyl]amino]-2-(2,4-dimethylphenyl)ethyl]boronic acid] | ++ (10 ≤ Selectivity < 50) | 0.05 to 0.5 | > 5
17 | Cc1ccc(C[C@H](NC(=O)Cc2ccc(N3CCCC3=O)cc2)B(O)O)c(C)c1 [Compound No. 43, [(1R)-2-(2,4-dimethylphenyl)-1-[[2-[4-(2-oxopyrrolidin-1-yl)phenyl]-acetyl]amino]ethyl]boronic acid] | +++++ (Selectivity ≥ 100) | < 0.05 | 0.5 to 5
18 | Cc1ccc(C[C@H](NC(=O)Cc2ccc(N(C)C)cc2)B(O)O)c(C)c1 [Compound No. 44, [(1R)-1-[[2-(4-dimethylaminophenyl)acetyl]amino]-2-(2,4-dimethylphenyl)ethyl]boronic acid] | +++++ (Selectivity ≥ 100) | < 0.05 | > 5
19 | C[C@@H](C(=O)N[C@@H](Cc1coc2ccccc12)B(O)O)c1ccccc1 [Compound No. 45, [(1R)-2-(benzofuran-3-yl)-1-[[(2R)-2-phenylpropanoyl]amino]ethyl]-boronic acid] | +++ (50 ≤ Selectivity < 70) | < 0.05 | 0.5 to 5
20 | Cc1ccc(C[C@H](NC(=O)Cc2ccc(NS(C)(=O)=O)cc2)B(O)O)c(C)c1 [Compound No. 46, [(1R)-2-(2,4-dimethylphenyl)-1-[[2-[4-(methanesulfonamido)phenyl]-acetyl]amino]ethyl]boronic acid] | ++++ (70 ≤ Selectivity < 100) | 0.05 to 0.5 | > 5
21 | COCC(=O)Nc1ccc(CC(=O)N[C@@H](Cc2ccc(C)cc2C)B(O)O)cc1 [Compound No. 47, [(1R)-2-(2,4-dimethylphenyl)-1-[[2-[4-[(2-methoxyacetyl)amino]-phenyl]acetyl]amino]ethyl]boronic acid] | +++++ (Selectivity ≥ 100) | 0.05 to 0.5 | > 5
22 | COCc1ccccc1CC(=O)N[C@@H](Cc1coc2ccccc12)B(O)O [Compound No. 48, [(1R)-2-(benzofuran-3-yl)-1-[[2-[2-(methoxymethyl)phenyl]acetyl]-amino]ethyl]boronic acid] | +++++ (Selectivity ≥ 100) | < 0.05 | 0.5 to 5
23 | COCc1cccc(CC(=O)N[C@@H](Cc2coc3ccccc23)B(O)O)c1 [Compound No. 49, [(1R)-2-(benzofuran-3-yl)-1-[[2-[3-(methoxymethyl)phenyl]acetyl]-amino]ethyl]boronic acid] | +++++ (Selectivity ≥ 100) | < 0.05 | 0.05 to 0.5
24 | O=C(Cc1ccccc1OCCO)N[C@@H](Cc1coc2ccccc12)B(O)O [Compound No. 50, [(1R)-2-(benzofuran-3-yl)-1-[[2-[2-(2-hydroxyethoxy)phenyl]acetyl]-amino]ethyl]boronic acid] | +++ (50 ≤ Selectivity < 70) | < 0.05 | 0.5 to 5
25 | COc1ccc(C(F)(F)C(=O)N[C@@H](Cc2coc3ccccc23)B(O)O)cc1 [Compound No. 51, [(1R)-2-(benzofuran-3-yl)-1-[[2,2-difluoro-2-(4-methoxyphenyl)acetyl]-amino]ethyl]boronic acid] | +++++ (Selectivity ≥ 100) | – | 0.5 to 5
26 | COc1cc(CC(=O)N[C@@H](Cc2coc3ccccc23)B(O)O)cc(OC)c1OC [Compound No. 52, [(1R)-2-(benzofuran-3-yl)-1-[[2-(3,4,5-trimethoxyphenyl)acetyl]amino]-ethyl]boronic acid] | ++ (10 ≤ Selectivity < 50) | < 0.05 | 0.05 to 0.5
27 | Cc1ccc(C[C@H](NC(=O)Cc2ccc(NC(=O)C(F)(F)F)cc2)B(O)O)c(C)c1 [Compound No. 53, [(1R)-2-(2,4-dimethylphenyl)-1-[[2-[4-[(2,2,2-trifluoroacetyl)amino]-phenyl]acetyl]amino]ethyl]boronic acid] | ++ (10 ≤ Selectivity < 50) | < 0.05 | 0.5 to 5
